Measured values reported in PubChem BioAssay (NCI).
“And” between values parts separate entries of the source, which are not always exact repeats. Equal values may be shown once.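 Tested at 5 concentrations; 48 h exposure; 96-well plates; endpoints linearly interpolated, else capped at highest concentration. At the GI50, growth is halved. The concentration for full growth arrest is given as TGI.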

Experiments:
Test in all cases: growth of human tumour cells (NCI), 48 h
[1] = test system: ACHN renal
[2] = test system: COLO 205 colon
[3] = test system: LOX IMVI melanoma
[4] = test system: M14 melanoma
[5] = test system: OVCAR-5 ovarian
[6] = test system: RPMI-8226 leukemia
[7] = test system: SF-539 CNS
[8] = test system: RXF 393 renal
[9] = test system: SR leukemia
[10] = test system: UACC-62 melanoma

CC1CN=C(N(C(=O)Nc2ccc(F)c(Cl)c2)c2ccccc2)S1 (centres undefined)
TGI [1]: 87.9 µM
TGI [2]: 38.9 µM
TGI [3]: 32.5 µM
TGI [4]: 75.5 µM
TGI [5]: 76.3 µM
TGI [6]: > 100 µM
TGI [7]: > 100 µM

COc1ccc(-c2c3c([nH]c(=S)c2C#N)CC(C)(C)CC3=O)cc1
TGI [1]: > 100 µM
TGI [3]: > 100 µM
TGI [4]: > 100 µM
TGI [5]: > 100 µM
TGI [6]: > 100 µM
TGI [8]: > 100 µM
TGI [7]: > 100 µM
TGI [9]: > 100 µM
TGI [10]: > 100 µM

C=C1c2cc3c(cc2CC12Cc1cc4c(cc1C2=O)CCC4)CCC3 (centres undefined)
TGI [1]: > 100 µM
TGI [3]: > 100 µM
TGI [4]: > 100 µM
TGI [5]: > 100 µM
TGI [6]: > 100 µM
TGI [8]: > 100 µM
TGI [7]: > 100 µM
TGI [9]: > 100 µM

COc1ccc(-c2oc(/C=N/NC(N)=S)c([N+](=O)[O-])c2-c2ccc(OC)c(OC)c2)cc1OC
TGI [1]: 76.3 µM
TGI [2]: > 100 µM
TGI [3]: 66 µM
TGI [4]: 67.9 µM
TGI [5]: > 100 µM
TGI [6]: 41.5 µM
TGI [8]: 45.6 µM
TGI [7]: 67.6 µM
TGI [10]: 78.5 µM

C/C1=C\CC[C@@]2(C)O[C@@H]2C[C@@H](C2(C)CO2)CC/C(C)=C/CC1 (some centres undefined)
TGI [1]: 35.1 µM
TGI [2]: 33.2 µM
TGI [3]: 28.8 µM
TGI [4]: 54.7 µM
TGI [5]: 50 µM
TGI [6]: > 100 µM
TGI [7]: 46 µM
TGI [9]: > 100 µM
TGI [10]: 40.4 µM

CCC1=CC2CN3Cn4c(c(COCc5c6n(c7ccccc57)CN5CC7C=C(CC)C5C6(C(=O)OC)C7)c5ccccc54)C(C(=O)OC)(C2)C13
TGI [1]: > 100 µM
TGI [2]: > 100 µM
TGI [3]: > 100 µM
TGI [4]: > 100 µM
TGI [6]: > 100 µM
TGI [8]: > 100 µM
TGI [9]: > 100 µM
TGI [10]: > 100 µM

C(/C=C(\Nc1ccccc1)C12CC3CC(CC(C3)C1)C2)=Nc1ccccc1
TGI [1]: 26.4 µM
TGI [2]: 32.6 µM
TGI [3]: 28.6 µM
TGI [4]: 32.6 µM
TGI [5]: 34.5 µM
TGI [8]: 35.4 µM
TGI [9]: 30.4 µM
TGI [10]: 25.7 µM

O=C(Nc1ccccc1F)c1cc2ccc(O)cc2oc1=Nc1ccccc1F
TGI [1]: 5.3 µM
TGI [2]: 61.7 µM
TGI [3]: 4.16 µM
TGI [4]: 5.57 µM
TGI [5]: 15.3 µM
TGI [6]: 7.84 µM
TGI [7]: 16.5 µM
TGI [9]: 5.37 µM
TGI [10]: 5.9 µM

O=C(NCCCN(CCCCN(CCCNC(=O)C(F)(F)F)Cc1ccc2ccccc2c1)Cc1ccc2ccccc2c1)C(F)(F)F
TGI [1]: > 100 µM
TGI [3]: > 100 µM
TGI [4]: 4.54 µM
TGI [5]: > 100 µM
TGI [6]: 7.15 µM
TGI [8]: > 100 µM
TGI [7]: > 100 µM
TGI [9]: 7.18 µM
TGI [10]: 5.41 µM

COc1ccc(S(=O)(=O)N2C(=O)CCC2C(=O)NN)cc1 (centres undefined)
TGI [1]: > 100 µM
TGI [2]: > 100 µM
TGI [3]: > 100 µM
TGI [4]: > 100 µM
TGI [5]: > 100 µM
TGI [6]: > 100 µM
TGI [7]: > 100 µM
TGI [9]: > 100 µM
TGI [10]: > 100 µM

Cc1cn([C@@H]2C[C@H](CO)[C@@H](O)C2)c(=O)[nH]c1=O
TGI [1]: > 100 µM
TGI [2]: > 100 µM
TGI [3]: > 100 µM
TGI [4]: > 100 µM
TGI [5]: > 100 µM
TGI [7]: > 100 µM
TGI [10]: > 100 µM

CC(C)(C)OC(=O)NCCC(N)=S
TGI [1]: > 100 µM
TGI [2]: > 100 µM
TGI [4]: > 100 µM
TGI [5]: > 100 µM
TGI [6]: > 100 µM
TGI [8]: > 100 µM
TGI [7]: > 100 µM
TGI [9]: > 100 µM
TGI [10]: > 100 µM

N#CCc1nc(-c2ccccc2)n[nH]1
TGI [1]: > 100 µM
TGI [2]: > 100 µM
TGI [3]: > 100 µM
TGI [4]: > 100 µM
TGI [5]: > 100 µM
TGI [8]: > 100 µM
TGI [7]: > 100 µM
TGI [9]: > 100 µM
TGI [10]: > 100 µM

NCCCN1CCN(CCCNc2ccc3nnn4c5ccccc5c(=O)c2c34)CC1
TGI [1]: 73.7 µM
TGI [2]: 19.4 µM
TGI [3]: 26.8 µM
TGI [4]: 38.4 µM
TGI [5]: > 100 µM
TGI [6]: > 100 µM
TGI [7]: 36.2 µM
TGI [9]: > 100 µM
TGI [10]: 33.7 µM

COc1c(O)c2c3c(c(C)cc(O)c3c1O)C(=O)C(O)(C(C)(C)C(C)=O)C2=O (centres undefined)
TGI [1]: > 100 µM
TGI [2]: > 100 µM
GI50 [3]: 33 µM and 67.6 µM
TGI [3]: > 100 µM
TGI [4]: > 100 µM
TGI [5]: > 100 µM
TGI [6]: > 100 µM
TGI [8]: > 100 µM
TGI [7]: > 100 µM
GI50 [10]: 39.9 µM and > 100 µM
TGI [10]: > 100 µM

C[C@]12CC[C@@H]3c4ccc(O)cc4CC[C@H]3[C@@H]1C/C(=C\c1ccncc1)[C@@H]2O
TGI [1]: 28.3 µM
TGI [2]: 19.8 µM
TGI [4]: > 100 µM
TGI [5]: > 100 µM
TGI [6]: 24.6 µM
TGI [8]: 7.73 µM
TGI [10]: 25.6 µM

CCCCn1cnc2c(c(CC#N)nn2-c2ccccc2)c1=N
TGI [1]: > 100 µM
TGI [2]: 92.8 µM
TGI [3]: > 100 µM
TGI [4]: > 100 µM
TGI [5]: > 100 µM
TGI [6]: 73.4 µM
TGI [8]: > 100 µM
TGI [10]: 53.1 µM

CC1(C)C2CC(=O)C1(C)C(O)C2Br (centres undefined)
TGI [1]: > 100 µM
TGI [4]: > 100 µM
TGI [5]: > 100 µM
TGI [8]: > 100 µM
TGI [7]: > 100 µM
TGI [10]: > 100 µM

CC(=O)c1cccn1/C=C(\OC(=O)OC(C)(C)C)c1ccc[nH]1
TGI [1]: > 100 µM
TGI [2]: > 100 µM
TGI [3]: > 100 µM
TGI [4]: > 100 µM
TGI [5]: > 100 µM
TGI [6]: > 100 µM
TGI [8]: > 100 µM
TGI [9]: > 100 µM
TGI [10]: > 100 µM

CCN(CC)CCCNC(=O)c1ccc([N+](=O)[O-])cc1O
TGI [1]: > 100 µM
TGI [2]: > 100 µM
TGI [3]: > 100 µM
TGI [4]: > 100 µM
TGI [5]: > 100 µM
TGI [8]: > 100 µM
TGI [7]: > 100 µM
TGI [10]: > 100 µM

Cc1cc(-c2nc3ccccc3s2)ccc1NC(=O)[C@@H](N)CCCCN
TGI [1]: 30.8 µM
TGI [2]: 24.8 µM
TGI [3]: 5.92 µM
TGI [4]: 7.88 µM
TGI [5]: 25.7 µM
TGI [8]: 16.5 µM
TGI [9]: > 54.7 µM
TGI [10]: 29.2 µM

S=C(/N=c1\sc(Nc2ccc(Cl)cc2)nc2sc3c(c12)CCN(N1CCc2c(sc4nc(Nc5ccc(Cl)cc5)s/c(=N\C(=S)Nc5ccc(Cl)cc5)c24)C1)C3)Nc1ccc(Cl)cc1
TGI [1]: > 100 µM
TGI [2]: > 100 µM
TGI [4]: > 100 µM
TGI [5]: 54.2 µM
TGI [8]: 36.7 µM
TGI [7]: 35.6 µM
TGI [10]: 48 µM

CCOC(=O)C1(C(=O)OCC)COS(=O)OC1
TGI [1]: > 100 µM
TGI [2]: 54.5 µM
TGI [3]: 28.4 µM
TGI [4]: > 100 µM
TGI [8]: 32.6 µM
TGI [9]: > 100 µM
